Experimental data published in ChEMBL document CHEMBL1156253 (Eur J Med Chem, 2010).

Molecular target: T1, Peroxisome proliferator-activated receptor gamma (Homo sapiens, UniProt P37231)
T1 sequence (P37231 whole entry): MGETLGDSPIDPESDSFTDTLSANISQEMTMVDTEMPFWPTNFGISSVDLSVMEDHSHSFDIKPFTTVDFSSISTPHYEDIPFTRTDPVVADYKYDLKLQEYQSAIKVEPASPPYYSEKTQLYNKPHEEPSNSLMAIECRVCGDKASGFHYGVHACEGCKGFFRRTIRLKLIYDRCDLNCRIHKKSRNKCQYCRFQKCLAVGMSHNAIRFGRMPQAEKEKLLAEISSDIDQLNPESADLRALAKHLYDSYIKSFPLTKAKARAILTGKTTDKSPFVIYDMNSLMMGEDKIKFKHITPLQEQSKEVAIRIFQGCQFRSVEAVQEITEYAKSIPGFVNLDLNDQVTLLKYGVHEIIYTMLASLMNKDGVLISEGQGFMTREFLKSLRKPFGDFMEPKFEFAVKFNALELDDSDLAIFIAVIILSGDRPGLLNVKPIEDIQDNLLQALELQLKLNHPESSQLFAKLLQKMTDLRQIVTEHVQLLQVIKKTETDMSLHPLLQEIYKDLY
Experiment: Agonist activity at N-terminal His-tagged human PPARgamma ligand binding domain by fluorescence polarization assay

Compound: Cc1ccc(COc2ccccc2/C=C2/SC(=S)N(CCC(=O)O)C2=O)cc1
- IC50: 1320 nM

Compound: O=C(O)CCN1C(=O)/C(=C\c2ccc(Cl)cc2Cl)SC1=S
- IC50: 876 nM
